# According to patent US7858072B2, “Stilbene derivatives and their use for binding and imaging amyloid plaques” (The Trustees of the University of Pennsylvania, priority 2004, dated 2010):
# Like-named read-outs stand apart in the source and are kept apart here.
# Legend:
# [1] = target: Aβ plaques (postmortem AD brain homogenates) (Homo sapiens, UniProt P05067); experiment: Binding assay: inhibition of [125I]IMPY binding in postmortem AD brain homogenates
# Method: Postmortem brain tissues were obtained from AD patients at autopsy, and neuropathological diagnosis was confirmed by current criteria (NIA-Reagan Institute Consensus Group, 1997). Homogenates were then prepared from dissected gray matters from AD patients in phosphate buffered saline (PBS, pH 7.4) at the concentration of approximately 100 mg wet tissue/ml (motor-driven glass homogenizer with setting of 6 for 30 sec).
# Binding assays were carried out in 12×75 mm borosilicate glass tubes. […] The mixture was incubated at 37° C. for 2 hr and the bound and the free radioactivity were separated by vacuum filtration through Whatman GF/B filters using a Brandel M-24R cell harvester followed by 2×3 ml washes of PBS at room temperature. Filters containing the bound ^125I ligand were assayed for radioactivity content in a gamma counter (Packard 5000) with 70% counting efficiency. […] The results of inhibition experiments were subjected to nonlinear regression analysis using EBDA by which Ki values were calculated.
# Aβ plaques = settings: cited from earlier work
# AD cortical homogenates = settings: Kung et al. 2004, cited from earlier work
# [2] = Partition coefficient (1-octanol/buffer); type: physicochemical; settings: 1-octanol / 0.1 M phosphate buffer, pH 7.4
# Method: Partition coefficients were measured by mixing the [^18F]tracer with 3 g each of 1-octanol and buffer (0.1 M phosphate, pH 7.4) in a test tube. The test tube was vortexed for 3 min at room temperature, followed by centrifugation for 5 min. Two weighed samples (0.5 g each) from the 1-octanol and buffer layers were counted in a well counter. The partition coefficient was determined by calculating the ratio of cpm/g of 1-octanol to that of buffer. Samples from the 1-octanol layer were re-partitioned until consistent partitions of coefficient values were obtained (usually the 3rd or 4th partition). The measurement was done in triplicate and repeated three times.
# [3] = Organ distribution in normal mice after iv injection of [18F]tracers; type: in vivo; settings: ICR mice, [18F]tracer in 0.1% BSA
# Method: The organs of interest were removed and weighed, and the radioactivity was assayed for radioactivity content with an automatic gamma counter. The percentage dose per organ was calculated by a comparison of the tissue counts to suitably diluted aliquots of the injected material. Total activities of blood were calculated under the assumption that they were 7% of the total body weight. The % dose/g of samples was calculated by comparing the sample counts with the count of the diluted initial dose.
# fibrillar Aβ aggregates = fibrillar Aβ aggregates (Homo sapiens, UniProt P05067); settings: Mathis et al. 1997; read-out: inhibition constants (Ki) for binding to fibrillar Aβ aggregates; cited from earlier work
# Sequence of fibrillar Aβ aggregates (P05067 672-711 limits assumed): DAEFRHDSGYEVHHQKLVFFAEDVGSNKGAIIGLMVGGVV
# Sequence of Aβ plaques (postmortem AD brain homogenates) (P05067 672-711 limits assumed): as above
structure (smiles),measurement,setting,value
"CNc1ccc(C=Cc2ccc(OCCOCCOCCO)cc2)cc1 [Compound 3b, 2-[-2-(2-{4-[2-(4-Methylamino-phenyl)-vinyl]-phenoxy}-ethoxy)-ethoxy]-ethanol]",Ki,"[1]; read-out: Ki ± SEM, X = OH",2.8 ± 0.2 nM
[11CH3]Nc1ccc(/C=C/c2ccc(O)cc2)cc1 [[^11C]SB-13],accumulation in the frontal cortex,"Aβ plaques; mild to moderate AD patients, not in age-matched control subjects",high accumulation
CNc1ccc(/C=C/c2ccc(O)cc2)cc1 [[^3H]SB-13],Kd,AD cortical homogenates,2.4 ± 0.2 nM
CNc1ccc(C=Cc2ccc(OCCOCCOCCOCCOCC[18F])cc2)cc1 [[^18F]12d],logp value (lipophilicity),[2],2.28
"CNc1ccc(C=Cc2ccc(OCCOCCOCCOCCF)cc2)cc1 [Compound 12c, (4-{2-[4-(2-{2-[2-(2-Fluoro-ethoxy)-ethoxy]-ethoxy}-ethoxy)-phenyl]-vinyl}-phenyl)-methyl-amine]",Blood,[3]; 2 min,3.22 ± 0.20 % dose/g
same,Bone,[3]; 2 min,2.31 ± 0.12 % dose/g
same,Brain,[3]; 2 min,6.59 ± 0.19 % dose/g
same,Blood,[3]; 30 min,1.88 ± 0.08 % dose/g
same,Bone,[3]; 30 min,1.00 ± 0.02 % dose/g
same,Brain,[3]; 30 min,1.27 ± 0.03 % dose/g
same,Blood,[3]; 1 hr,1.81 ± 0.48 % dose/g
same,Bone,[3]; 1 hr,0.98 ± 0.27 % dose/g
same,Brain,[3]; 1 hr,1.20 ± 0.10 % dose/g
same,Blood,[3]; 2 hr,1.60 ± 0.12 % dose/g
same,Bone,[3]; 2 hr,1.50 ± 0.05 % dose/g
same,Brain,[3]; 2 hr,1.21 ± 0.06 % dose/g
"CNc1ccc(C=Cc2ccc(OCCOCCO)cc2)cc1 [Compound 3a, 2-(2-{4-[2-(4-Methylamino-phenyl)-vinyl]-phenoxy}-ethoxy)-ethanol]",Ki,"[1]; read-out: Ki ± SEM, X = OH",5.2 ± 0.4 nM
"CNc1ccc(C=Cc2ccc(OCCOCCOCCOCCOCCF)cc2)cc1 [Compound 12d, [4-(2-{4-[2-(2-{2-[2-(2-Fluoro-ethoxy)-ethoxy]-ethoxy}-ethoxy)-ethoxy]-phenyl}-vinyl)-phenyl]-methyl-amine]",Blood,[3]; 2 min,4.99 ± 0.38 % dose/g
same,Bone,[3]; 2 min,2.24 ± 0.21 % dose/g
same,Brain,[3]; 2 min,7.30 ± 1.05 % dose/g
same,Blood,[3]; 30 min,4.66 ± 0.06 % dose/g
same,Bone,[3]; 30 min,2.29 ± 0.21 % dose/g
same,Brain,[3]; 30 min,2.43 ± 0.03 % dose/g
same,Blood,[3]; 1 hr,2.89 ± 0.11 % dose/g
same,Bone,[3]; 1 hr,1.66 ± 0.01 % dose/g
same,Brain,[3]; 1 hr,1.77 ± 0.11 % dose/g
same,Blood,[3]; 2 hr,2.59 ± 0.18 % dose/g
same,Bone,[3]; 2 hr,2.35 ± 0.27 % dose/g
same,Brain,[3]; 2 hr,1.62 ± 0.03 % dose/g
same,Ki,"[1]; read-out: Ki ± SEM, X = F",6 ± 0.8 nM
[11CH3]Nc1ccc(-c2nc3ccc(O)cc3s2)cc1 [[^11C]6-OH-BTA-1],retention in the cortex,Aβ plaques; patients with diagnosed mild AD,marked retention
"CNc1ccc(C=Cc2ccc(OCCOCCOCC[18F])cc2)cc1 [[^18F]12b, [^18F]{4-[2-(4-{2-[2-(2-Fluoro-ethoxy)-ethoxy]-ethoxy}-phenyl)-vinyl]-phenyl}-methyl-amine]",logp value (lipophilicity),[2],2.41
same,Bone,[3]; 2 hr,2.74 % dose/g
"CNc1ccc(C=Cc2ccc(OCCOCCF)cc2)cc1 [Compound 12a, [4-(2-{4-[2-(2-Fluoro-ethoxy)-ethoxy]-phenyl}-vinyl)-phenyl]-methyl-amine]",Blood,[3]; 2 min,2.64 ± 0.55 % dose/g
same,Bone,[3]; 2 min,1.89 ± 0.25 % dose/g
same,Brain,[3]; 2 min,8.14 ± 2.03 % dose/g
same,Blood,[3]; 30 min,2.42 ± 0.27 % dose/g
same,Bone,[3]; 30 min,1.40 ± 0.11 % dose/g
same,Brain,[3]; 30 min,3.00 ± 0.16 % dose/g
same,Blood,[3]; 1 hr,2.04 ± 0.16 % dose/g
same,Bone,[3]; 1 hr,1.71 ± 0.23 % dose/g
same,Brain,[3]; 1 hr,2.60 ± 0.22 % dose/g
same,Blood,[3]; 2 hr,2.77 ± 0.63 % dose/g
same,Bone,[3]; 2 hr,2.88 ± 0.07 % dose/g
same,Brain,[3]; 2 hr,2.14 ± 0.06 % dose/g
same,Ki,"[1]; read-out: Ki ± SEM, X = F",2.9 ± 0.2 nM
CC(=C(C#N)C#N)c1ccc2cc(N(C)CCF)ccc2c1 [[^18F]FDDNP],relative residence time of the brain region of interest versus the pons,"Aβ plaques; AD patients versus comparison subjects, PET",significantly higher in AD patients
[3H]N(c1ccc(/C=C/c2ccc(O)cc2)cc1)C([3H])([3H])[3H] [[^3H]SB-13],binding capacity,AD cortical homogenates; AD cortical homogenates,14-45 pmol/mg protein
"CNc1ccc(C=Cc2ccc(OCCOCC[18F])cc2)cc1 [[^18F]12a, [^18F][4-(2-{4-[2-(2-Fluoro-ethoxy)-ethoxy]-phenyl}-vinyl)-phenyl]-methyl-amine]",logp value (lipophilicity),[2],2.52
"CNc1ccc(C=Cc2ccc(OCCOCCOCCOCCO)cc2)cc1 [Compound 3c, 2-{2-[2-(2-{4-[2-(4-Methylamino-phenyl)-vinyl]-phenoxy}-ethoxy)-ethoxy]-ethoxy}-ethanol]",Ki,"[1]; read-out: Ki ± SEM, X = OH",4.6 ± 0.2 nM
CNc1ccc(C=Cc2ccc(OCCOCCOCCOCC[18F])cc2)cc1 [[^18F]12c],logp value (lipophilicity),[2],2.05
"CNc1ccc(C=Cc2ccc(OCCOCCOCCOCCOCCO)cc2)cc1 [Compound 3d, 2-(2-{2-[2-(2-{4-[2-(4-Methylamino-phenyl)-vinyl]-phenoxy}-ethoxy)-ethoxy]-ethoxy}-ethoxy)-ethanol]",Ki,"[1]; read-out: Ki ± SEM, X = OH",5.2 ± 0.2 nM
"O=C(O)c1cc(/N=N/c2ccc(-c3ccc(/N=N/c4ccc(O)c(C(=O)O)c4)cc3)cc2)ccc1O [CG, chrysamine-G]",Ki,fibrillar Aβ aggregates,370 nM
